Read-outs that look alike come from different tables or passages of the source.
Key:
HeLa cells = test: HeLa cell viability (PrestoBlue) assay, 72 h; type: cell-based, human; conditions: for GI50 FK866 with carbazole/GI50 FK866 / GI50 PTX/GI50 PTX with carbazole: ratio at the highest noncytotoxic dose of carbazole analog; for GI50 FK866 with carbazole/GI50 FK866: readout of NAMPT activation; for GI50 PTX/GI50 PTX with carbazole: synergy with PTX; for fold reduction of GI50 by addition of 12 μM Carba1: drug with 12 μM Carba1 vs drug alone
Protocol: The human HeLa cell line was tested negative for mycoplasma contamination. HeLa cells were grown in RPMI 1640 medium supplemented with penicillin/streptomycin (100 μg/ml) and 10% FBS and maintained in a humidified incubator at 37°C and 5% CO2.
Cell viability was analyzed using the colorimetric PrestoBlue assay. Cells were seeded in 96-well microplates at a density of 7500 cells per well, allowed to adhere for 24 hours, and treated for 72 hours with either DMSO or drugs at indicated concentrations. PrestoBlue (10 μl) was then added to each well, followed by a 30-min incubation. Fluorescence was measured using a FLUOstar Optima microplate reader (excitation, 544 nm; emission, 580 nm; BMG Labtech).

adult mouse DRG neurons = test: Axonal degeneration index in dissociated adult mouse DRG neurons; conditions: DIV 12 neurons, 72 h; Carba1 12 μM, PTX 50 nM, Cis 10 μM, Bort 100 nM
Protocol: After 4 days in vitro (DIV), at least 30% of medium was changed, and 10 μM AraC (cytosine β-D-arabino furanoside) was added to suppress nonneuronal growth. […] Neurons were fixed with 4% paraformaldehyde (PFA), washed with PBS, permeabilized with PBS–0.01% Triton X-100 for 15 min, and blocked with PBS–10% FBS for 1 hour before being stained overnight at 4°C with neurofilament antibody. Following PBS washes, secondary antibody (goat anti-chicken Alexa Fluor 488) was applied for 2 hours at room temperature (R.T.). Following additional PBS washes, coverslips were mounted with Fluoromount-G.
Images of random fields of dissociated adult DRG neurons, immunostained with antineurofilament or anti-TUBB3 antibodies, were captured using a 20× objective lens (Olympus IX81) and a Sensicam QE monochrome camera (Cooke Corporation). Degeneration masks were generated on the basis of the method described by Gerdts et al. ([66]). Axonal degeneration was quantified by measuring the total axonal area and fragmented axonal area in the same field, using degeneration masks as shown in fig. […] Images were processed in Fiji using global autothresholding, binarization, and the particle analyzer module to detect fragments (20 to 10,000 pixels), as previously described ([17]). The degeneration index was calculated as the ratio of fragmented axonal area to total axonal area.

[1] = cell viability, compound alone, read-out: GI50
[2] = Homo sapiens, HeLa cells, 72 h, PrestoBlue, drug applied alone, read-out: GI50, drug alone

GI50 (HeLa cells; [1])	Structure (SMILES)	GI50 FK866 with carbazole/GI50 FK866 (HeLa cells)	GI50 PTX/GI50 PTX with carbazole (HeLa cells)	further results
1 µM	Cc1cc(-n2ccc(CO)c2)c(C)c2c1[nH]c1ccc(Cl)cc12 [Compound 8]	1	3.8	
	CC(C)C[C@H](NC(=O)[C@H](Cc1ccccc1)NC(=O)c1cnccn1)B(O)O [Bort, bortezomib, reference compound]			axonal fragmentation / degeneration, agent alone (adult mouse DRG neurons): induced significant axonal fragmentation; GI50 (HeLa cells; [2]): 0.0359 ± 0.0037 µM; GI50 (HeLa cells; Homo sapiens, HeLa cells, 72 h, with 12 μM Carba1, read-out: GI50, drug in combination with Carba1): 0.04 ± 0.0033 µM
12.7 µM	Cc1cc(-n2ccc(CN(C)C)c2)c(C)c2c1[nH]c1ccc(Cl)cc12 [Compound 6]	1	0.8	
16 µM	Cc1cc(-n2cccc2)c(C)c2c1[nH]c1ccc(Br)cc12 [Compound 2]	2	1.6	
	CC(=O)O[C@@]12CO[C@@H]1C[C@H](O)[C@@]1(C)C(=O)[C@H](O)C3=C(C)[C@@H](OC(=O)[C@H](O)[C@@H](NC(=O)OC(C)(C)C)c4ccccc4)C[C@@](O)([C@@H](OC(=O)c4ccccc4)[C@H]21)C3(C)C [DTX, docetaxel, reference compound]			fold reduction of GI50 by addition of 12 μM Carba1 (HeLa cells; HeLa cells, 72 h): 3.8 fold; GI50 (HeLa cells; [2]): 0.0011 ± 0.0002 µM
> 25 µM	COc1cccc(NCC(F)Cn2c3ccc(Cl)cc3c3c(C)c(-n4cccc4)cc(C)c32)c1 (centres unmarked) [Compound 16]	0.98	1.2	
> 25 µM	Cc1cc(-n2cccc2)c(C)c2c1[nH]c1ccc(O)cc12 [Compound 11]	1.3	1.5	
1 µM	Cc1cc(-n2ccc(C=O)c2)c(C)c2c1[nH]c1ccc(Cl)cc12 [Compound 13]	1	4.4	
10.3 µM	CCNCc1ccn(-c2cc(C)c3[nH]c4ccc(Cl)cc4c3c2C)c1 [Compound 7]	1	0.77	
15 µM	Cc1cc(-n2cccc2)c(C)c2c1[nH]c1cc(Cl)ccc12 [Compound 4]	0.93	1.8	
> 25 µM	CCc1cccc2c1[nH]c1c(C)cc(-n3cccc3)c(C)c12 [Compound 3]	1.5	1.5	
> 25 µM	CCOC(=O)Oc1ccc2[nH]c3c(C)cc(-n4c(C)ccc4C)c(C)c3c2c1 [Compound 15]	1.1	1	
> 25 µM	Cc1cc(-n2c(C)ccc2C)c(C)c2c1[nH]c1ccc(Br)cc12 [Compound 9]	0.99	1	
25 µM	CCOC(=O)Oc1ccc2[nH]c3c(C)cc(-n4cccc4)c(C)c3c2c1 [Compound 10]	1.1	1.7	
	C/C(=C\c1csc(C)n1)[C@@H]1C[C@@H]2O[C@]2(C)CCC[C@H](C)[C@H](O)[C@@H](C)C(=O)C(C)(C)[C@@H](O)CC(=O)O1 [Epo-B, epothilone-B, reference compound]			fold reduction of GI50 by addition of 12 μM Carba1 (HeLa cells; HeLa cells, 72 h): 4.4 fold; GI50 (HeLa cells; [2]): 0.0005 ± 3e-05 µM
14 µM	Cc1cc(-n2c(C)ccc2C)c(C)c2c1[nH]c1ccc(Cl)cc12 [Compound 12]	1.09	0.9	
	N.N.[Cl][Pt][Cl] [Cis, cisplatin, reference compound]			GI50 (HeLa cells; HeLa cells, 72 h, PrestoBlue, drug applied alone, read-out: GI50, drug alone): 0.167 ± 0.0308 µM
1.2 µM	Cc1cc(-n2ccc(C=O)c2)c(C)c2c1[nH]c1ccc(Br)cc12 [Compound 14]	1	2.5	
